In patent US12570642B2, “GLP-IR modulating compounds” (Gilead Sciences, Inc., priority 2021, dated 2026):

What follows are compounds tested against GLP-1R (Homo sapiens, UniProt P43220) (assay: GLP-1R Activation - cAMP Assay). Conditions: cAMP increase in CHO cells stably expressing GLP-1R; each compound run on one of the two cAMP assays (Assay 1 or Assay 2, not specified).
Assay type: cell-based
In short: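 cAMP rise read by HTRF after 30 min agonist exposure (10-point titration, 37 °C) in HBSS/20 mM Hepes/0.1% BSA, following 1 h pre-incubation. Cells: stable GLP-1R CHO line, 1,000/well, seeded overnight. Sigmoidal fit of response vs log concentration gives EC50.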

Sequence of GLP-1R (P43220 24-463): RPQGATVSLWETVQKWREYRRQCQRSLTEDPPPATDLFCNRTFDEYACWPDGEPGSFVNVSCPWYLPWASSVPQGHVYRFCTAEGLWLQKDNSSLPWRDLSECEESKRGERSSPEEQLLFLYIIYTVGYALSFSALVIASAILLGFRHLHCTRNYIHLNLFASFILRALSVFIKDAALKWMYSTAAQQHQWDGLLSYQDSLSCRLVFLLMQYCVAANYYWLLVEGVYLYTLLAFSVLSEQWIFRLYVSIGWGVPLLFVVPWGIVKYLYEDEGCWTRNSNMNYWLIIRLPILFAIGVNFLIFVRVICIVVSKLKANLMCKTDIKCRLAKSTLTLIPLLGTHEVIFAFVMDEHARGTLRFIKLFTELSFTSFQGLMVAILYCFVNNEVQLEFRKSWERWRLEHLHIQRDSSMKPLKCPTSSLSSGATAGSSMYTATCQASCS

SMILES	EC50
CC1(C)COC[C@H]1n1c(Cc2cc(F)c(-c3ccc(F)c(OCc4ccc(C#N)cc4)n3)cc2F)nc2c(F)cc(C(=O)O)cc21 [Example 325, (S)-2-(4-(6-((4-cyanobenzyl)oxy)-5-fluoropyridin-2-yl)-2,5-difluorobenzyl)-1-(4,4-dimethyltetrahydrofuran-3-yl)-4-fluoro-1H-benzo[d]imidazole-6-carboxylic acid]	0.155 nM
CC1(C)COC[C@H]1n1c(Cn2cc(Cl)c(-c3cccc(OCc4ccc(C#N)cc4F)n3)cc2=O)nc2c(F)cc(C(=O)O)cc21 [Example 326, (S)-2-((5′-chloro-6-((4-cyano-2-fluorobenzyl)oxy)-2′-oxo-[2,4′-bipyridin]-1′(2′H)-yl)methyl)-1-(4,4-dimethyltetrahydrofuran-3-yl)-4-fluoro-1H-benzo[d]imidazole-6-carboxylic acid]	0.236 nM
CC1(C)COC[C@H]1n1c(Cn2cc(Cl)c(-c3cccc(OCc4ccc(Cl)cc4F)n3)cc2=O)nc2c(F)cc(C(=O)O)cc21 [Example 327, (S)-2-((5′-chloro-6-((4-chloro-2-fluorobenzyl)oxy)-2′-oxo-[2,4′-bipyridin]-1′(2′H)-yl)methyl)-1-(4,4-dimethyltetrahydrofuran-3-yl)-4-fluoro-1H-benzo[d]imidazole-6-carboxylic acid]	0.266 nM
CC1(C)COC[C@H]1n1c(Cn2cc(F)c(-c3ccc(F)c(OCc4ccc(C#N)cc4F)n3)cc2=O)nc2ccc(C(=O)O)cc21 [Example 328, (S)-2-((6-((4-cyano-2-fluorobenzyl)oxy)-5,5′-difluoro-2′-oxo-[2,4′-bipyridin]-1′(2′H)-yl)methyl)-1-(4,4-dimethyltetrahydrofuran-3-yl)-1H-benzo[d]imidazole-6-carboxylic acid]	0.555 nM
CC1(C)COC[C@H]1n1c(Cc2ccc(-c3cccc(OCc4ccc(Cl)cc4F)n3)cc2F)nc2c(F)cc(C(=O)O)cc21 [Example 329, (S)-2-(4-(6-((4-chloro-2-fluorobenzyl)oxy)pyridin-2-yl)-2-fluorobenzyl)-1-(4,4-dimethyltetrahydrofuran-3-yl)-4-fluoro-1H-benzo[d]imidazole-6-carboxylic acid]	0.062 nM
CC1(C)COC[C@H]1n1c(Cc2ccc(-c3ccc(F)c(OCc4ccc(C#N)cc4F)n3)cc2F)nc2ccc(C(=O)O)cc21 [Example 330]	0.011 nM
CC1(C)COC[C@H]1n1c(Cc2ccc(-c3cccc(OCc4ccc(Cl)cc4F)n3)cc2F)nc2ccc(C(=O)O)cc21 [Example 331, (S)-2-(4-(6-((4-chloro-2-fluorobenzyl)oxy)pyridin-2-yl)-2-fluorobenzyl)-1-(4,4-dimethyltetrahydrofuran-3-yl)-1H-benzo[d]imidazole-6-carboxylic acid]	0.218 nM
CC1(C)COC[C@H]1n1c(Cc2ccc(-c3ccc(F)c(OCc4ccc(Cl)cc4F)n3)cc2F)nc2ccc(C(=O)O)cc21 [Example 332, (S)-2-(4-(6-((4-chloro-2-fluorobenzyl)oxy)-5-fluoropyridin-2-yl)-2-fluorobenzyl)-1-(4,4-dimethyltetrahydrofuran-3-yl)-1H-benzo[d]imidazole-6-carboxylic acid]	0.159 nM
Cc1cc(Cc2nc3c(F)cc(C(=O)O)cc3n2[C@@H]2COCC2(C)C)c(Cl)cc1-c1ccc(F)c(OCc2ccc(Cl)cc2F)n1 [Example 334, (S)-2-(2-chloro-4-(6-((4-chloro-2-fluorobenzyl)oxy)-5-fluoropyridin-2-yl)-5-methylbenzyl)-1-(4,4-dimethyltetrahydrofuran-3-yl)-4-fluoro-1H-benzo[d]imidazole-6-carboxylic acid]	0.067 nM
CC1(C)COC[C@H]1n1c(Cc2c(F)cc(-c3ccc(F)c(OCc4ccc(Cl)cc4F)n3)c(F)c2F)nc2ccc(C(=O)O)cc21 [Example 335, (S)-2-(4-(6-((4-chloro-2-fluorobenzyl)oxy)-5-fluoropyridin-2-yl)-2,3,6-trifluorobenzyl)-1-(4,4-dimethyltetrahydrofuran-3-yl)-1H-benzo[d]imidazole-6-carboxylic acid]	0.306 nM
CC1(C)COC[C@H]1n1c(Cc2c(F)cc(-c3ccc(F)c(OCc4ccc(Cl)cc4F)n3)c(F)c2F)nc2c(F)cc(C(=O)O)cc21 [Example 336, (S)-2-(4-(6-((4-chloro-2-fluorobenzyl)oxy)-5-fluoropyridin-2-yl)-2,3,6-trifluorobenzyl)-1-(4,4-dimethyltetrahydrofuran-3-yl)-4-fluoro-1H-benzo[d]imidazole-6-carboxylic acid]	0.016 nM

The remaining lines, values ahead:

EC50	SMILES
0.025 nM	CC1(C)COC[C@H]1n1c(Cc2ccc(-c3ccc(F)c(OCc4ccc(C#N)cc4F)n3)cc2F)nc2c(F)cc(C(=O)O)cc21 [Example 337, (S)-2-(4-(6-((4-cyano-2-fluorobenzyl)oxy)-5-fluoropyridin-2-yl)-2-fluorobenzyl)-1-(4,4-dimethyltetrahydrofuran-3-yl)-4-fluoro-1H-benzo[d]imidazole-6-carboxylic acid]
0.013 nM	COc1cc(Cl)ncc1COc1nc(-c2cc(F)c(Cc3nc4c(F)cc(C(=O)O)cc4n3[C@@H]3COCC3(C)C)c(F)c2F)ccc1F [Example 339, (S)-2-(4-(6-((6-chloro-4-methoxypyridin-3-yl)methoxy)-5-fluoropyridin-2-yl)-2,3,6-trifluorobenzyl)-1-(4,4-dimethyltetrahydrofuran-3-yl)-4-fluoro-1H-benzo[d]imidazole-6-carboxylic acid]
0.005 nM	COc1cc(Cl)ncc1COc1nc(-c2cc(F)c(Cc3nc4c(F)cc(C(=O)O)cc4n3[C@@H]3COCC3(C)C)cc2F)ccc1F [Example 340, (S)-2-(4-(6-((6-chloro-4-methoxypyridin-3-yl)methoxy)-5-fluoropyridin-2-yl)-2,5-difluorobenzyl)-1-(4,4-dimethyltetrahydrofuran-3-yl)-4-fluoro-1H-benzo[d]imidazole-6-carboxylic acid]
0.024 nM	COc1cc(Cl)ncc1COc1nc(-c2cc(F)c(Cc3nc4ccc(C(=O)O)cc4n3[C@@H]3COCC3(C)C)c(F)c2F)ccc1F [Example 341, (S)-2-(4-(6-((6-chloro-4-methoxypyridin-3-yl)methoxy)-5-fluoropyridin-2-yl)-2,3,6-trifluorobenzyl)-1-(4,4-dimethyltetrahydrofuran-3-yl)-1H-benzo[d]imidazole-6-carboxylic acid]
0.012 nM	COc1cc(Cl)ncc1COc1nc(-c2cc(F)c(Cc3nc4ccc(C(=O)O)cc4n3[C@@H]3COCC3(C)C)cc2F)ccc1F [Example 342, (S)-2-(4-(6-((6-chloro-4-methoxypyridin-3-yl)methoxy)-5-fluoropyridin-2-yl)-2,5-difluorobenzyl)-1-(4,4-dimethyltetrahydrofuran-3-yl)-1H-benzo[d]imidazole-6-carboxylic acid]
0.113 nM	CC1(C)COCC1n1c(Cc2cc(F)c(-c3ccnc(OCc4ccc(Cl)cc4F)n3)cc2Cl)nc2c(F)cc(C(=O)O)cc21 (stereo not drawn) [Example 343, 2-(2-chloro-4-(2-((4-chloro-2-fluorobenzyl)oxy)pyrimidin-4-yl)-5-fluorobenzyl)-1-(4,4-dimethyltetrahydrofuran-3-yl)-4-fluoro-1H-benzo[d]imidazole-6-carboxylic acid]
0.147 nM	CC1(C)COCC1n1c(Cc2cc(F)c(-c3ccnc(OCc4ccc(C(F)F)cc4F)n3)cc2Cl)nc2c(F)cc(C(=O)O)cc21 (stereo not drawn) [Example 344, 2-(2-chloro-4-(2-((4-(difluoromethyl)-2-fluorobenzyl)oxy)pyrimidin-4-yl)-5-fluorobenzyl)-1-(4,4-dimethyltetrahydrofuran-3-yl)-4-fluoro-1H-benzo[d]imidazole-6-carboxylic acid]
0.197 nM	CC1(C)COCC1n1c(Cc2cc(F)c(-c3ccc(F)c(OCc4ccc(C#N)cc4F)n3)cc2Cl)nc2ccc(C(=O)O)cc21 (stereo not drawn) [Example 345, 2-(2-chloro-4-(6-((4-cyano-2-fluorobenzyl)oxy)-5-fluoropyridin-2-yl)-5-fluorobenzyl)-1-(4,4-dimethyltetrahydrofuran-3-yl)-1H-benzo[d]imidazole-6-carboxylic acid]
0.075 nM	CC1(C)COCC1n1c(Cc2cc(F)c(-c3ccc(F)c(OCc4ccc(C#N)cc4F)n3)cc2Cl)nc2c(F)cc(C(=O)O)cc21 (stereo not drawn) [Example 346, 2-(2-chloro-4-(6-((4-cyano-2-fluorobenzyl)oxy)-5-fluoropyridin-2-yl)-5-fluorobenzyl)-1-(4,4-dimethyltetrahydrofuran-3-yl)-4-fluoro-1H-benzo[d]imidazole-6-carboxylic acid]
0.132 nM	CC1(C)COCC1n1c(Cc2cc(F)c(-c3ccc(F)c(OCc4ccc(Cl)cc4F)n3)cc2F)nc2c(F)cc(C(=O)O)cc21 (stereo not drawn) [Example 347, 2-(4-(6-((4-chloro-2-fluorobenzyl)oxy)-5-fluoropyridin-2-yl)-2,5-difluorobenzyl)-1-(4,4-dimethyltetrahydrofuran-3-yl)-4-fluoro-1H-benzo[d]imidazole-6-carboxylic acid]
0.55 nM	CC1(C)COCC1n1c(Cc2cc(F)c(-c3nccc(OCc4ccc(Cl)cc4F)n3)cc2F)nc2c(F)cc(C(=O)O)cc21 (stereo not drawn) [Example 348, 2-(4-(4-((4-chloro-2-fluorobenzyl)oxy)pyrimidin-2-yl)-2,5-difluorobenzyl)-1-(4,4-dimethyltetrahydrofuran-3-yl)-4-fluoro-1H-benzo[d]imidazole-6-carboxylic acid]
0.042 nM	COC(=O)N1Cc2ccc(COc3cccc(-c4cc(F)c(Cc5nc6c(F)cc(C(=O)O)cc6n5C[C@@H]5CCO5)cc4F)n3)cc2C1 [Example 349, 2-[[2,5-difluoro-4-[6-[(2-methoxycarbonylisoindolin-5-yl)methoxy]-2-pyridyl]phenyl]methyl]-7-fluoro-3-[[(2S)-oxetan-2-yl]methyl]benzimidazole-5-carboxylic acid]
0.171 nM	COCCn1c(Cc2cc(F)c(-c3cccc(OCc4ccc(-n5ccnn5)nc4)n3)cc2Cl)nc2c(F)cc(C(=O)O)cc21 [Example 350, 2-(4-(6-((6-(1H-1,2,3-triazol-1-yl)pyridin-3-yl)methoxy)pyridin-2-yl)-2-chloro-5-fluorobenzyl)-4-fluoro-1-(2-methoxyethyl)-1H-benzo[d]imidazole-6-carboxylic acid]
